Data on six compounds can be found in patent US20090305886A1, “Pesticidal Mixtures” (BASF SE, priority 2006, published 2009).

What all share (assay type): in vivo
For experiment [1], the system named is Vetch Aphid (Megoura viciae). Kind of experiment: Vetch Aphid (Megoura viciae) leaf disk microtiterplate test. The method, then:
Vetch Aphid (Megoura viciae)
The active compounds are formulated in 1:3 DMSO:water. Bean leaf disks are placed into microtiterplates filled with 0.8% agar-agar and 2.5 ppm OPUS™. The leaf disks are sprayed with 2.5 μl of the test solution and 5 to 8 adult aphids are placed into the microtiterplates which are then closed and kept at 22-24° C. and 35-45% under fluorescent light for 6 days. Mortality is assessed on the basis of vital, reproduced aphids. Tests are replicated 2 times.
(§1) The presence of a synergistic effect in terms of percent control, between the two mixing partners (X and Y) is calculated using the Colby equation (Colby, S. R., 1967, Calculating Synergistic and Antagonistic Responses in Herbicide Combinations, Weeds, 15, 20-22):
(§2) When the observed combined control effect is greater than the expected combined control effect (E), then the combined effect is synergistic.

Experiment [2] has as its system Boll Weevil (Anthonomus grandis). The experiment can be described thus: Boll Weevil (Anthonomus grandis) egg microtiterplate test. The method, then:
Boll Weevil (Anthonomus grandis)
The active compounds are formulated in 1:3 DMSO:water. 10 to 15 eggs are placed into microtiterplates filled with 2% agar-agar in water and 300 ppm formaline. The eggs are sprayed with 20 μl of the test solution, the plates are sealed with pierced foils and kept at 24-26° C. and 75-85% humidity with a day/night cycle for 3 to 5 days. Mortality is assessed on the basis of the remaining unhatched eggs or larvae on the agar surface and/or quantity and depth of the digging channels caused by the hatched larvae. Tests are replicated 2 times.
as §1, §2

Experiment [3] relates to Mediterranean Fruitfly (Ceratitis capitata). Kind of experiment: Mediterranean Fruitfly (Ceratitis capitata) egg microtiterplate test. The method, then: Mediterranean Fruitfly (Ceratitis capitata)
The active compounds are formulated in 1:3 DMSO:water. 50 to 80 eggs are placed into microtiterplates filled with 0.5% agar-agar and 14% diet in water. The eggs are sprayed with 5 μl of the test solution, the plates are sealed with pierced foils and kept at 27-29° C. and 75-85% humidity under fluorescent light for 6 days. Mortality is assessed on the basis of the agility of the hatched larvae. Tests are replicated 2 times.
as §1, §2

Experiment [4] concerns Tobacco Budworm (Heliothis virescens). The experiment can be described thus: Tobacco Budworm (Heliothis virescens) test protocol no. II. The method, then: Tobacco Budworm (Heliothis virescens)—Test Protocol no. II
The active compounds are formulated in 1:3 DMSO:water. 15 to 25 eggs are placed into microtiterplates filled with diet. The eggs are sprayed with 10 μl of the test solution, the plates are sealed with pierced foils and kept at 27-29° C. and 75-85% humidity under fluorescent light for 6 days. Mortality is assessed on the basis of the agility and of comparative feeding of the hatched larvae. Tests are replicated 2 times.
as §1, §2

Setting [5] is: 0 + 0.1 ppm (compound I-1 alone).
[6] abbreviates: 0 + 100 ppm (compound I-1 alone).
Setting [7] is: 0 + 0.3 ppm (compound I-1 alone).

For the compound `N#Cc1nn(-c2c(Cl)cc(C(F)(F)F)cc2Cl)c(N)c1[S+]([O-])C(F)(F)F` (stereo not drawn) [fipronil], the “Average Control %” value in experiment [1] (3 + 0 ppm (fipronil alone)) is 50%; in experiment [2] (1 + 0 ppm (fipronil alone)), 0%; in experiment [3] (1 + 0 ppm (fipronil alone)), 0%.
With `CC(C)c1cc(Oc2ccccc2)cc(C(C)C)c1NC(=S)NC(C)(C)C` [diafenthiuron], in experiment [4] (300 + 0 ppm (diafenthiuron alone)), the “Average Control %” value worked out at 0%.
Consider spinosad, for which the “Average Control %” value in experiment [1] (300 + 0 ppm (spinosad alone)) and in experiment [3] (0.3 + 0 ppm (spinosad alone)) was 0% in each case.
Regarding `CC(C)N1C(=O)N(c2ccccc2)CS/C1=N\C(C)(C)C` [buprofezine], the “Average Control %” value in experiment [2] (10 + 0 ppm (buprofezine alone)) and in experiment [3] (3 + 0 ppm (buprofezine alone)) was 0% each time.
As for `N#CC(C#N)(CCC(F)(F)F)CC(F)(F)C(F)(F)C(F)(F)C(F)F` [compound I-1, 2-(2,2,3,3,4,4,5,5-octafluoro-pentyl)-2-(3,3,3-trifluoro-propyl)-malononitrile], the “Average Control %” value in experiment [1] (setting [5]), in experiment [1] (setting [6]), in experiment [2] (setting [5]), in experiment [2] (setting [7]), in experiment [2] (0 + 3 ppm (compound I-1 alone)) and in experiment [3] (setting [5]) was 0% throughout. Also, the “Average Control %” value in experiment [3] (0 + 30 ppm (compound I-1 alone)), in experiment [3] (setting [6]) and in experiment [4] (setting [7]) was 0% in each case.
Turning to `O=[N+]([O-])NC1=NCCN1Cc1ccc(Cl)nc1` [imidacloprid], in experiment [2] (3 + 0 ppm (imidacloprid alone)), the “Average Control %” value came to 0%.
